From patent US20160375006A1, “USES OF PARALOG-SELECTIVE INHIBITORS OF GSK3 KINASES” (priority 2012, published 2016)
“Also recorded” adds a separate entry of the source. Where two headings read alike, the source gives them in different places.

Legend:
[1] = biological target: T1, GSK3β (Homo sapiens, UniProt P49841); experiment: Mechanism of action: ATP competition at GSK3β (Lineweaver-Burk, IC50 at two ATP concentrations); assay type: biochemical; settings: versus ATP
Procedure: . IC50s were measured against GSK3β at two different ATP concentrations. […]

[2] = GSH stability; assay type: physicochemical; settings: after 48 hours
Procedure: (§1) Stability was determined in the presence of PBS pH 7.4 μM and 50 μM glutathione with 0.1% DMSO. Each compound was prepared in duplicate on six separate plates and allowed to equilibrate at room temperature with a 250 rpm orbital shake for 48 hours. One plate was removed at each time point (0, 2, 4, 8, 24, and 48 hours). […] Additionally, to the remaining material at each time point, acetonitrile was added to force dissolution of compound (to test for recovery of compound). An aliquot of this was also analyzed by UPLC-MS.

[3] = in mice (mouse plasma), 5 hours
[4] = system: panel of 311 kinases
Procedure: Briefly, a selection of compounds was screened against a panel of kinases at a single concentration of 10 μM. […] This was completed utilizing one of two assays depending on the kinase being examined.
Test compounds were dissolved in and diluted with dimethylsulfoxide (DMSO) to generate a 100× sample solution. These were then diluted to 4× sample solutions in assay buffer to make the final test compound solutions. Reference compounds for assay control were prepared similarly.
A solution of IMAP binding reagent (IMAP Screening Express kit; Molecular Devices) (60 μL) was added to each well and incubated for 30 minutes.
A solution of termination buffer (QuickScout Screening assist MSA; Carna Biosciences) (60 μL) was added to each well. The entire reaction mixture was then applied to a LabChip3000 system (Caliper Life Science) and the product and substrate peptide peaks were separated and quantified.

[5] = for Mouse microsomes, % remaining: after 1 hour
[6] = PBS stability; assay type: physicochemical
Procedure: as §1, with “7.4” for “7.4 μM and 50 μM glutathione”

[7] = system: β-catenin nuclear translocation; experiment: β-Catenin nuclear localization assay in U2-OS cells; assay type: cell-based; settings: Homo sapiens, U2OS, read-out: beta-Catenin translocation EC50
Procedure: U2-OS cells stably expressing two complimentary β-galactosidase fragments (one part on β-Catenin and the other constitutively expressed in the cell nucleus) were maintained in DMEM F12 supplemented with 10% FBS. When β-catenin translocates to the nucleus, the complimentary fragments form a complete β-galactosidase, the amount of which is then quantified by β-galactosidase activity (DiscoveRx). Cells were seeded in a 384-well CulturPlate (Perkin Elmer, Boston, Mass.) with 10,000 per well in 20 μL DMEM F12 containing 10% FCS, 100 U/ml penicillin and 100 m/mL streptomycin. After overnight incubation at 37° C., cells were stimulated with 100 nL test compound/well and then returned to the incubator for 6 h. Cells were disrupted using 12 μL substrate-containing lysis buffer from the PathHunter Detection Kit in the formulation specified by the supplier (DiscoveRx). Plates were incubated in the dark for 1 h at room temperature before measurement of β-galactosidase activity (luminescence) on an EnVision plate reader (PerkinElmer, Waltham, Mass.). Distance between plate and detector was 0.2 mm. Measurement time(s)=0.1; Glow (CT2) correction factor=0.

[8] = biological target: T2, GSK3α (Homo sapiens, UniProt P49840); experiment: biochemical
T2 sequence (P49840 whole entry): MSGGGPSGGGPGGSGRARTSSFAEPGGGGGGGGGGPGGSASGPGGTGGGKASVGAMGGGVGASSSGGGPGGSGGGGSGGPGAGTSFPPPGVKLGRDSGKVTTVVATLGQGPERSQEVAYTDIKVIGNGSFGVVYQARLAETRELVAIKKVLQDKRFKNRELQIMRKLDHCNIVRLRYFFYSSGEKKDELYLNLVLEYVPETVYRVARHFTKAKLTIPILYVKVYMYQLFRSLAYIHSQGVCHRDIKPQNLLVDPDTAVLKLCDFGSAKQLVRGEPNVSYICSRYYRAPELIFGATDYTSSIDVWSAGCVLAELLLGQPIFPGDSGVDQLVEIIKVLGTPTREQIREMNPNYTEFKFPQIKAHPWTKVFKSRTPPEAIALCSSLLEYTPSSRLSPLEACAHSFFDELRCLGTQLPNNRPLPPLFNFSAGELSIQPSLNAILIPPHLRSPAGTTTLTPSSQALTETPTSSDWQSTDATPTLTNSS

[9] = biological target: T1, GSK3β; experiment: biochemical
Procedure: 100 nL/well compounds were pinned. […] Incubated at room temperature for 60 minutes. Added 20 μL/well of ADP-glo (Promega, V9103) with Combi, and incubated at room temperature for 40 minutes. Added 40 μL/well of ADP-glo (Promega, V9103) with Combi, incubated at room temperature for 30 minutes. Read on Envision for luminescence.

[10] = biological target: T1, GSK3β; experiment: biochemical; remark: listed apart in the source
Procedure: (§2) Reactions were terminated by the addition of 10 mM EDTA. Substrate and product were separated electrophoretically and fluorescence intensity of the substrate and product was determined by Labchip EZ Reader II (Caliper Life Sciences, MA). The kinase activity was measured as percent conversion. The reactions were performed in duplicate for each sample. […] The results were analyzed by Genedata Assay Analyzer. The percent inhibition was plotted against the compound concentration and the IC50 value was determined from the logistic dose-response curve fitting.

[11] = system: TCF/LEF reporter; experiment: cells; settings: Homo sapiens, HEK293, read-out: TCF/LEF EC50, HEK293 cells
Procedure: HEK293-pBARL cells were derived from HEK293 cells and they stably expressed a firefly-luciferase reporter gene driven by a promoter containing 12 copies of TCF/LEF binding sequences. These cells were maintained in DMEM and supplemented with 10% FBS and 1% penicillin-streptomycin (Invitrogen). Reporter gene assays were conducted in anti-biotic free media. […] These cells also contained a renilla-luciferase reporter gene driven by the ubiquitous EF1α promoter as a control. HEK293-pBarl reporter cell lines were seeded into 384-well culture plates (Corning) at 6000 cells/well. 24 hours after plating, cells were treated overnight with relevant compounds and assayed using DualGlo assay kit (Promega). Luminescent intensities were read by EnVision (PerkinElmer, Waltham, Mass.). Firefly luciferase intensity is normalized by renilla luciferase intensity.
Cells were cultured in 384 well plates to appropriate density (40 μl total plating volume). 24 hours after plating, cells were treated with 100 nl compounds. 24 hours after incubation with compounds (48 hours after plating), assay reagents were prepared by mixing Luciferase Assay solution with Luciferase substrate and Stop & Glo solution to Stop & Glo substrate (extra reagents can be aliquoted and frozen for future use and are stable for at least one freeze/thaw cycle). […] The plate was spun down and 10 minutes were allowed for signal stabilization. Luciferase signal on the Perkin Elmer EnVision using the following parameters: Distance between plate & detector (mm)=0.2; Measurement time(s)=0.1; Glow (CT2) correction factor=0. Once the initial data is secure, a volume of Stop & Glo was added equal to each well equal to the volume of Luciferase reagent added above (If 10 μl Luciferase Reagent was added, 10 μl Stop & Glo was also added). The plate was spun down and 10 minutes were allowed for signal stabilization. The plate was read on the EnVision using the same parameters detailed above.

[12] = system: phospho-Tau (Ser199); experiment: Tau phosphorylation (Ser199) ELISA in SH-SY5Y cells; assay type: cell-based; settings: Homo sapiens, read-out: p-Tau Inhibition ELISA EC50 SH-SY5Y
Procedure: SH-SY5Y cells were maintained in DMEM supplemented with 10% heat-inactivated FBS and 1% penicillin-streptomycin (Invitrogen) unless otherwise stated. ELISA kits for phospho-Tau (Ser199) and total Tau detection were purchased from Invitrogen (KHB0041, and KHB7041 respectively). Briefly, SH-SY5Y cells were seeded at 50,000 cells/200 μL/well in 96 well plates and after overnight incubation, treated with various doses of chemical compounds at 0.2 μL/well. The next day cells were washed with PBS twice before being lysed in 100 μL Lysis buffer/well. 50 μL of cell lysate of each sample was transferred to an ELISA vial coated with the capture antibody, and the mixture was incubated at room temperature for 2 hours, before the supernatant was aspired, and each vial washed four times. 100 μL of detection antibody was then added to each well, incubated for 1 hour, and then washed four times. […] Data were scaled using the positive and neutral controls and fitted for IC50.
A standard protocol using an immunoassay kit to quantify total Tau protein and phospho-Tau (Ser199) protein in SH-SY5Y human neuroblastoma cells was employed. Human Tau (Total) ELISA kit (#KHB0041) and human phosphor-Tau (Ser199) ELISA kit were purchased from Invitrogen (#KHB7041)
50,000 cells were seeded in 200 μl per well in cell culture media (250,000 cells/ml). Cells were incubated overnight @ 37° C. Cells were induced with appropriate doses of inhibitors and incubated for approximately 24 hrs @ 37° C. Cell lysates were harvested by washing cells once with cold PBS and adding 100 μl cold lysis buffer and pipette up and down vigorously. Lysate was transferred to 96 well PCR plate and centrifuged at 4,000 rpm for 20 minutes at 4° C.
Well strips were warmed and inserted into the frame. 100μ of standard diluent buffer were loaded into ZERO wells, and 100 ul of each standard concentrations (both total Tau and pTau) were loaded into wells in duplicate. Samples were loaded to each well that would be analyzed for total Tau, 85 μl standard diluent buffer and 15 μl cell lysate were added. To each well that will be analyzed for pTau (Ser199) 50 μl standard diluent buffer+50 μl cell lysate were added. Plates were tapped gently on the side to mix. Certain wells were left empty for chromogen blank. Plates were covered and incubated for 2 hours at room temperature. Wells were aspirated 4 times (400 μl diluted wash buffer, left for 30 seconds, aspirated all wells; alternatively used automated plate washer and programmed in a 30 second hold between each cycle). 100 μl of detection antibody solution were added to each well except chromogen blanks. Anti-total Tau was added to wells being analyzed for total Tau, anti-pTau (Ser199) was added to wells being analyzed for pTau (Ser199), and plates were tapped gently on the side to mix. Plates were covered and incubated for 1 hour at room temperature, then wells were aspirated and washed 4 times as described above. 100 μl of anti-rabbit IgG HRP working solution (prepared ahead) were added to each well except chromogen blanks, and plates were covered and incubated for 30 minutes at room temperature, then wells were aspirated and washed 4 times as described above. 100 μl of stabilized chromogen were added to each well (the liquid turned blue). Plates were incubates for 30 minutes at room temperature in the dark, then 100 μl of stop solution were added to each well, and plates were tapped gently on the side to mix. Absorbance of each well was read at 450 nm (within 2 hours of adding stop solution).

[13] = biological target: T2, GSK3α; settings: for IC50: read-out: Caliper Assay, GSK3α IC50; for GSK3α fold selectivity: GSK3α over GSK3β
[14] = biological target: T1, GSK3β; settings: GSK3β over GSK3α
Procedure: as §2

[15] = system: HL-60 and U937 cells; experiment: GE-HTS 32-gene myeloid differentiation signature; assay type: cell-based; settings: three days
From the text: This assay uses ligation-mediated amplification with a fluorescent bead-based detection system to quantify the expression of up to 500 genes in a single well. Two primary scoring methods are used to quantify induction of the 32-gene myeloid differentiation signature. The Summed Score combines expression ratios (marker gene/control gene) by summing them with a sign determined by the expected direction of regulation from ATRA-treated positive controls. The Weighted Summed Score combines expression ratios by summing them with a weight and sign determined by the signal-to-noise ratio of each expression ratio for the positive control (ATRA-treated) and negative control (DMSO-treated) samples. To assess the statistical significance of the differences between these differentiation scores a one-way ANOVA with a Bonferroni correction as a post-hoc test was employed.

[16] = system: amphetamine-induced hyperactivity; experiment: Amphetamine-induced hyperactivity (AIH) in mice; assay type: in vivo, mouse; settings: versus vehicle
[17] = Pharmacokinetics and brain distribution in male C57BL/6 mice; settings: single i.p. dose 30 mg/kg (CHIR99021 12.5 mg/kg)
[18] = system: AML cell lines; experiment: May-Grunwald Giemsa morphology of AML cell lines; assay type: cell-based; settings: three days after treatment
Procedure: On day three post-chemical treatment, cytospin preparations were performed. Changes in cellular morphology were evaluated by May-Grunwald Giemsa staining (Sigma Aldrich). Images were acquired by light microscopy at 400× magnification.

[19] = system: human iPSC-NPCs; experiment: Neurogenesis assay (TCF/LEF-luciferase in human iPSC-NPCs); assay type: cell-based; settings: 24-h treatment
Procedure: Human neuroprogenitor cells were generated and derived according to methods known in the art. […] Single-cell suspensions were prepared from the human iPSC-NPCs, stably integrated with the TCF/LEF-luciferase reporter, and dispensed into 96- or 384-well plates at the seeding densities of 20,000 or 6,000 per well, respectively, using a Matrix WellMate (Thermo Scientific) microplate dispenser. A 96-well plate format was used for measuring Wnt3a and lithium (lithium chloride solution, 10 M; Fluka, St. Louis, Mo.) dose-response effects, whereas a 384-well plate format was used for all small-molecule probe treatments and chemical screening. The next day, cells were subjected to various 24-h treatments. Just prior to the luminescence reading, the plates were taken out of a 37° C. incubator and equilibrated to room temperature for 30 min before the SteadyGlo reagent (Promega, Madison, Wis.) was dispensed (volume equal 1:1 SteadyGlo:culture medium). Luminescence was measured after a 10-min incubation using an EnVision multilabel plate reader (PerkinElmer, Waltham, Mass.).

T1 sequence (P49841 whole entry): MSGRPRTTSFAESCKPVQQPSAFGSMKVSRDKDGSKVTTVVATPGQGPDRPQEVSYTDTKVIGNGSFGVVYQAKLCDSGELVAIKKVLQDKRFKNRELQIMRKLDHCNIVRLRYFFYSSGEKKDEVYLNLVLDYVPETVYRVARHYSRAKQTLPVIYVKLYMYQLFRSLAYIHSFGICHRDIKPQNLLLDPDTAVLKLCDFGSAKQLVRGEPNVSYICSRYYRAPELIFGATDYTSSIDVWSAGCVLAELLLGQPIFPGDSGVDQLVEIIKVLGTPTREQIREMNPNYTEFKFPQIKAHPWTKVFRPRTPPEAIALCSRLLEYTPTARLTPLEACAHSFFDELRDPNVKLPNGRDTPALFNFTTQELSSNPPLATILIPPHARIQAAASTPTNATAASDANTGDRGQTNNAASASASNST

Structure (SMILES)	EC50 [7] [nM]	IC50 [8] [nM]	IC50 [9] [nM]	IC50 [10] [nM]	EC50 [11] [nM]	other results
COc1ccccc1[C@@H]1C2=C(CC(C)(C)CC2=O)Nc2n[nH]c(C(F)(F)F)c21 [Compound 54, (R)-4-(2-methoxyphenyl)-7,7-dimethyl-3-(trifluoromethyl)-6,7,8,9-tetrahydro-2H-pyrazolo[3,4-b]quinolin-5(4H)-one]	–	–	–	–	–	Mode of inhibition of GSK3β [1]: ATP-competitive inhibition; Glutathione (GSH) stability, % remaining [2]: 99%; Plasma stability % remaining [3]: 99%; Percent of the kinome (311 kinases) inhibited [4]: 2.6%; Microsomal Stability ([5]; M): M: 0%; recovery at 48 h ([6]; PBS, pH 7.4, after 48 hours of incubation, read-out: PBS stability, % still present (acetonitrile recovery)): > 95%; Concentration in PBS (0.1% DMSO) over time ([6]; over 48 hours, reflects kinetic solubility): about 200%
COc1ccccc1C1C2=C(CC(C)(C)CC2=O)Nc2n[nH]c(-c3ccccc3)c21 (stereo not drawn) [Compound 51]	> 50000	101 to 1000	1000 to 5000	101 to 1000	> 25000	–
COc1ccccc1C1C2=C(CC(C)(C)CC2=O)Nc2n[nH]c(C(C)C)c21 (stereo not drawn) [Compound 49]	> 50000	101 to 1000	101 to 1000	–	> 25000	–
COc1ccccc1C1C2=C(CC(C)(C)CC2=O)Nc2n[nH]c(C(F)(F)F)c21 (racemic) [racemic probe, 4-(2-methoxyphenyl)-7,7-dimethyl-3-(trifluoromethyl)-6,7,8,9-tetrahydro-2H-pyrazolo[3,4-b]quinolin-5(4H)-one]	–	–	–	–	–	Mouse microsomes, % remaining [5]: < 1%
CC1(C)CC(=O)C2=C(C1)Nc1n[nH]c(C(F)(F)F)c1C2c1ccccc1 (stereo not drawn) [Compound 52]	13100	–	–	–	9320	EC50 [12]: 507 nM; IC50 [13]: < 100 nM
Cc1[nH]nc2c1C(C1CCCCC1)C1=C(CC(C)(C)CC1=O)N2 (stereo not drawn) [compound 44]	> 50000	–	–	–	> 25000	–
CC1(C)CC(=O)C2=C(C1)Nc1n[nH]c(Br)c1C2c1ccccc1 (stereo not drawn) [Compound 74]	–	–	–	< 100	6190	EC50 [12]: 2090 nM; IC50 [13]: < 100 nM
CC1(C)CC(=O)C2=C(C1)Nc1n[nH]c(C(F)(F)F)c1C2c1ccc(F)cc1C(F)(F)F (stereo not drawn) [Compound 65]	–	101 to 1000	101 to 1000	101 to 1000	> 25000	–
CC1(C)CC(=O)C2=C(C1)Nc1n[nH]c(C(F)(F)F)c1C2c1ccccc1F (stereo not drawn) [Compound 58]	–	–	101 to 1000	–	> 25000	IC50 [13]: < 100 nM
Cc1cccc(C2C3=C(CC(C)(C)CC3=O)Nc3n[nH]c(C)c32)c1 (stereo not drawn) [Compound 18]	–	101 to 1000	101 to 1000	101 to 1000	–	–
Cc1[nH]nc2c1C(C)C1=C(CC(C)(C)CC1=O)N2 (stereo not drawn) [Compound 42]	> 50000	101 to 1000	1000 to 5000	101 to 1000	> 25000	–
CC1(C)CC(=O)C2=C(C1)Nc1n[nH]c(C(F)(F)F)c1C2(C)c1ccccc1 (racemic) [Compound 70, 4,7,7-trimethyl-4-phenyl-3-(trifluoromethyl)-6,7,8,9-tetrahydro-2H-pyrazolo[3,4-b]quinolin-5(4H)-one]	–	–	–	–	–	GSK3β fold selectivity [14]: 5 fold; AML differentiation by GE-HTS signature [15]: induces AML (acute myeloid leukemia) differentiation by GE-HTS signature; also recorded: induced a gene expression signature in AML cell lines consistent with myeloid differentiation; Amphetamine-induced hyperactivity, i.p. ([16]; systemic intraperitoneal injection): attenuate amphetamine-induced hyperactivity; Pharmacokinetic profile (systemic exposure, brain distribution) compared to CHIR99021 [17]: improved pharmacokinetic profile; Morphological AML differentiation (May-Grunwald Giemsa) [18]: induces morphological evidence of AML (acute myeloid leukemia) differentiation; Morphological AML differentiation (May-Grunwald Giemsa) ([18]; listed as compound 70): demonstrated cellular differentiation
COc1ccccc1C1C2=C(CCCC2=O)Nc2n[nH]c(C)c21 (stereo not drawn) [Compound 46]	> 50000	101 to 1000	1000 to 5000	101 to 1000	> 25000	–
Cc1[nH]nc2c1C(C1CC1)C1=C(CC(C)(C)CC1=O)N2 (stereo not drawn) [Compound 43]	> 50000	1000 to 5000	1000 to 5000	1000 to 5000	> 25000	EC50 [12]: > 30000 nM
CCc1[nH]nc2c1C(c1ccccc1OC)C1=C(CC(C)(C)CC1=O)N2 (stereo not drawn) [Compound 48]	24600	–	101 to 1000	–	16200	IC50 [13]: < 100 nM
CC1(C)CC(=O)C2=C(C1)Nc1n[nH]c(C(F)(F)F)c1C2(C)c1ccccc1 (racemic) [Compound 68]	–	–	–	–	–	GSK3β fold selectivity [14]: 2.9 fold; EC50 [12]: 1580 nM

Structure (SMILES)	EC50 [7] [nM]	IC50 [8] [nM]	IC50 [9] [nM]	IC50 [10] [nM]	EC50 [11] [nM]	other results
CC1(C)CC(=O)C2=C(C1)Nc1n[nH]c(C(F)(F)F)c1C2(C)c1ccccc1F (stereo not drawn) [Compound 69]	–	–	–	< 100	20800	EC50 [12]: 2410 nM; GSK3α fold selectivity [13]: 1.7 fold; IC50 [13]: < 100 nM
COc1ccccc1C1C2=C(CC3(CCCCC3)CC2=O)Nc2n[nH]c(C)c21 (stereo not drawn) [Compound 56]	> 50000	101 to 1000	101 to 1000	101 to 1000	> 25000	–
CC1(C)CC(=O)C2=C(C1)Nc1n[nH]c(C(F)(F)F)c1C2c1ccccc1C(F)(F)F (stereo not drawn) [Compound 62]	4230	–	–	–	3930	EC50 [12]: 652 nM
Cc1[nH]nc2c1C(c1ccccc1Br)C1=C(CC(C)(C)CC1=O)N2 (stereo not drawn) [Compound 16]	–	–	101 to 1000	–	–	–
CC1(C)CC(=O)C2=C(C1)Nc1n[nH]c(C(F)(F)F)c1C2c1cccc(F)c1C(F)(F)F (stereo not drawn) [Compound 63]	3340	–	–	–	4830	EC50 [12]: 1380 nM; IC50 [13]: < 100 nM
COc1ccccc1C1C2=C(CCC(C)(C)C2=O)Nc2n[nH]c(C)c21 (stereo not drawn) [Compound 45]	> 50000	101 to 1000	101 to 1000	101 to 1000	> 25000	–
CC1(C)CC(=O)C2=C(C1)Nc1n[nH]c(C(F)(F)F)c1C2c1cc(F)ccc1F (stereo not drawn) [Compound 60]	–	101 to 1000	101 to 1000	101 to 1000	> 25000	–
Cc1c[nH]c(-c2cnc(NCCNc3ccc(C#N)cn3)nc2-c2ccc(Cl)cc2Cl)n1 [CHIR99021, reference compound]	–	–	–	–	–	Number of kinases inhibited greater than 50% at 10 μM ([4]; panel of 311 kinases, 10 μM): 21
COc1ccccc1[C@H]1C2=C(CC(C)(C)CC2=O)Nc2n[nH]c(C)c21 [Compound 21]	–	101 to 1000	1000 to 5000	1000 to 5000	–	–
Cc1[nH]nc2c1C(C)(c1ccccc1)C1=C(CC(C)(C)CC1=O)N2 (stereo not drawn) [Compound 67]	–	–	–	–	–	Mouse microsomes, % remaining [5]: 32%; Microsomal stability 60 min ([5]; in mice, 60 min): 32; GSK3α fold selectivity [13]: 5.2 fold
CC1(C)CC(=O)C2=C(C1)Nc1n[nH]c(C(F)(F)F)c1C2c1cccnc1 (stereo not drawn) [Compound 76]	–	101 to 1000	–	< 100	6190	EC50 [12]: 2090 nM
Cc1ccccc1C1C2=C(CC(C)(C)CC2=O)Nc2n[nH]c(C)c21 (stereo not drawn) [Compound 17]	–	–	101 to 1000	101 to 1000	–	–
CC1(C)CC(=O)C2=C(C1)Nc1n[nH]c(C(F)(F)F)c1C2c1cc(F)ccc1OC(F)(F)F (stereo not drawn) [Compound 61]	–	101 to 1000	101 to 1000	101 to 1000	> 25000	–
COc1ccccc1[C@@H]1C2=C(CC(C)(C)CC2=O)Nc2n[nH]c(C)c21 [Compound 22]	–	–	–	–	–	Mode of inhibition of GSK3β [1]: competitive inhibition; Amphetamine-induced hyperactivity, ICV ([16]; intracerebroventricular injection): attenuate amphetamine-induced hyperactivity; Neurogenesis [19]: promoted neurogenesis
COc1ccccc1C1C2=C(CC(C)(C)CC2=O)Nc2n[nH]c(C(C)(C)C)c21 (stereo not drawn) [Compound 50]	> 50000	1000 to 5000	101 to 1000	101 to 1000	> 25000	–
